Tests used:
[1] = tested on: Peripheral blood T cells; test: S phase entry of mitogen-stimulated peripheral blood T cells (flow cytometry); type: cell-based, human; conditions: PHA; for cell death: evaluated at 40 h, data not shown
Method: C and D. LAC blocks the S phase entry of the mitogen-stimulated peripheral blood T cells Peripheral blood T cells were stimulated with PHA (2 μ/ml) in the absence or presence of LAC (10 μM, added at 0 h, 16 h, 24 h, or 40 h, as indicated in the bottom of the panels). For the flow cytometry analysis of the cell cycle progress, the cells were harvested at 0 h, 1 6 h, 40 h and 64 h as indicated on the top of the panels (FIG. 6C). For ^3H-thymidine uptake, the triplicated cell samples were pulsed at 48 h and harvested at 64 h (FIG. 6D).
T cells from PBMC were at Go when isolated. After 16 h stimulation with PHA, they remained before the S phase (FIG. 6C). At 40 h, about 20% of the cells were in the S and G2/M phases. The peak of ^3H-thymidine uptake according to a 16 h pulse was between 48 h and 64 h (data not shown), although at 64 h, the cells in the S and G2/M phases were still about 20% (FIG. 6C). The lack of an increase in percentage of cells in the S and G2/M phases at 64 h compared with that at 40 h was likely due to the exit of the cells from the S and G2/M phase. It is to be noted that the cycling T cells in this system never reaches 100%, because about 15% of the cells were non T cells, and an additional 20% were non responsive T cells. Taken the cell proliferation and cell cycle analysis together, the G1/S boundary of the cycling T cells should be between about 35 h and 48 h after the PHA stimulation. The boundary was broad because the synchronization was not ideal.
In this model, the role of the proteasome in the S phase entry was examined. […] We have noticed that when the cell viability was evaluated at 40 h, there was an increase of cell death comparing the 16 h addition of LAC with the 0 h addition (about 25% vs about 17%, data not shown). The increased cell death was also reflected in the cells with <2N DNA in the 40 h histogram. However, such a viability was still reasonable and would not invalidate our conclusion. […] The discrepancy could be explained by the fact that the 20% cells were already in the S and G2/M phases at 40 h when LAC was added. LAC prevented additional cells from entering into the S phase, therefore the lack ^3H-thymidine uptake.
Flow cytometry was employed for cell cycle analysis for T cells and Jurkat cells as described before (Shan et al., 1994, supra) using propidium iodide staining.

[2] = tested on: Cyclin E; test: Immunoblotting of Cyclin E level in T cells; type: cell-based, human
Method: Tonsillar T cells were activated with PHA (2 μg/ml) for a period as indicated in each graph. LAC (10 μM) was added once at 0 h. The cells were harvested at 16 h, 24 h, or 40 h as indicated. An equal amount of lysate protein ([…]) was precipitated with rabbit anti-CDK4, anti-CDK2 or anti-Cyclin E antisera (2.5 μg Ab/sample). The immune complexes were assayed for their kinase activities using histone H1 as a substrate. (A) CDK4 kinase activity. (B) CDK2 kinase activity. (C) Cyclin E-associated CDK activity. The membrane in (C) was subsequently hybridized with anti-Cyclin E (1 μg/ml) followed by ^125I-protein A for the evaluation of the protein level of Cyclin E.
Tonsillar T cells were stimulated with PHA (2 μg/ml) for 40 h in the presence of hydroxyurea (1 mM), and these cells were blocked at the G1/S boundary (G1 block). The synchronization was released by washing out hydroxyurea, and the cells were recultured in medium containing 2 μg/ml PHA in the absence or presence of LAC ([…], added once at the time of the release). The cells were harvested at 6 h and 22 h post the G1/S block. […]
Immunoblotting was employed to evaluate the levels of Cyclin E, cyclin A, p21^Cip1 and p27^Kip1. […] The cleared lysates were quantitated for protein concentrations. […] The signals on the membrane were detected by [^125I]-protein A followed by autoradiography.

[3] = tested on: Jurkat cells; test: Electron microscopy of Jurkat cells; type: cell-based; conditions: LAC 6 μM; 24 h
Method: E and F: Morphology of Jurkat cell treated with LAC. Jurkat cells were cultured in the absence (E) or presence (F) of LAC (6 μM) for 24 h and were evaluated with EM. Arrows indicate condensed nuclei.
Electron microscopy was also employed to examine the mode of cell death induced by LAC. The resting T cells (cells cultured in medium, FIG. 3A), activated T cells (40 h after PHA activation, FIG. 3C), and Jurkat cells (FIG. 3E) were all healthy looking. […] The resting T cells treated with LAC (10 μM) for 24 h were still healthy (FIG. 3B).
T cells and Jurkat cells were examined by electron microscopy as described by Tsao and Duguid (Tsao et al., 1987, Exp. Cell Res. 168:365).

## CC(=O)N[C@@H](CSC(=O)[C@]1([C@@H](O)C(C)C)NC(=O)[C@H](C)[C@@H]1O)C(=O)O [LAC, lactacystin]
[1]; LAC 10 μM added once at 16 h, examined at 40 h
  S phase entry: totally block the S phase entry
[1]; LAC added at 0 h
  cell death: about 17%
[1]; LAC added at 16 h
  cell death: about 25%
[1]; LAC added at 40 h or not, at 64 h
  percentage of the population in the S and G2/M phase: no difference
[2]; PHA plus hydroxyurea block, released, LAC added at release, 6 h and 22 h
  decline of Cyclin E level after the G1/S boundary: decline was prevented
[2]; PHA-activated T cells, LAC added once at 0 h
  Cyclin E protein level: increased
[3]
  nuclear condensation by electron microscopy: frequently observed

Source: US20020049157A1, “Use of proteasome inhibitors for treating cancer, inflammation, autoimmune disease, graft rejection and septic shock” (priority 1998, published 2002)
